Assay results from patent US20100022637A1, “IDENTIFICATION OF ANTI-CANCER COMPOUNDS AND COMPOUNDS FOR TREATING HUNTINGTON'S DISEASE AND METHODS OF TREATMENT THEREOF” (THE TRUSTEES OF COLUMBIA UNIVERSITY IN THE CITY OF NEW YORK, priority 2005, published 2010).

Columns and labels:
N548 mutant cells = assay: cells; settings: for Activity: scale not defined; for maximal fold induction: read-out: N548 Mut: Max, maximum rescue expressed as fold over DMSO treated N548 mutant cells; for selectivity profile of cell death rescue in panel of htt expressing cell lines: N63, N548, FL htt cell lines, in words
Procedure: Embryonic rat striatal neurons were conditionally immortalized by stably transfecting a temperature-sensitive SV40 large T-antigen (T-ag) to generate the ST14A cell line. ST14A cells proliferate at the permissive temperature (33° C.), but stop dividing at 39° C., as a result of T-ag degradation. […] As htt protein context modulates polyQ toxicity, testing these different length htt proteins could provide insight into the basis for context dependence.
ST14A Assay System: Calcein acetoxylmethyl ester (AM) (Molecular Probes, Eugene, Oreg.) is a non-fluorescent, membrane-permeable compound that is cleaved by intracellular esterases, which subsequently forms the anionic, fluorescent compound, calcein, that cannot permeate the cell membrane. […] A fluorescence viability assay, that is based on conversion of a non-fluorescent substrate (calcein AM) to a fluorescent product by nonspecific esterases in live cells, was employed to monitor cell death in wild type (wt) ST14A-Htt and mut ST14A-Htt cell lines. Cell death is indicated by a decrease in fluorescence. […] 3 μl of each compound was transferred from daughter plates to triplicate assay plates for a final assay concentration of 4 μg/ml in 0.1% DMSO (10 μM for NINDS compounds). Cells were incubated at 33° C. for 3 h to enhance attachment and then shifted to 39° C. (with 5% CO2). After 3 days (d), cells were washed 10 times with phosphate buffered saline (PBS) leaving 20 μl residual PBS per well, and 20 μl of 2 μg/ml calcein AM (Molecular probes) in PBS was added per well. […] The fluorescence intensity in each well was normalized to the median of each plate. The median normalized fluorescence of each triplicate assay wells was determined. A well with more than 50% increase in intensity above the median signal intensity was considered a “hit.”
Assay Development: An assay was developed for detecting mutant htt-induced cell death in ST14A cells in a 384-well plate format. A calcein AM-based method was used to detect cell viability, and optimized the cell number and time course for this method. […] A cell number titration was performed to determine the cell density at which calcein fluorescence was not saturated and the coefficient of variation (CV) was low (FIG. 14A-B). A low CV is critical for a high-throughput assay as it decreases noise and enhances sensitivity. […] Next, the kinetics of the fluorescence signal were determined.
Next, the serum concentrations that induce cell death in these cells were determined. Cells were seeded in decreasing serum (IFS) concentrations (5 to 0%), and cell viability was assayed after 3 d using the calcein AM assay (FIG. 14E).
A Z′ value of greater than 0 is required for a usable assay, with a maximum value of 1.0 for an ideal assay. For the assay, calcein fluorescence was used on the day of seeding to represent 100% rescue. The difference in calcein fluorescence signal on the day of seeding and after different number of days under serum deprivation was determined and used to calculate the Z′ factor. […] About 47,000 compounds were assayed in a 384-well plate format in triplicate to enhance the reliability of the primary screen.

[1] = Rescue and toxicity of Compound 164 and analogs (Table 4); settings: for TC50: Table 4, toxicity; for Max % Toxicity: Table 4, cell model not stated
[2] = nonselective hits (rescue also parental ST14A), 0.5% IFS, 39° C., 3 d
[3] = Rattus norvegicus, read-out: EC50 based on activity in N548 mutant cells
[4] = read-out: EC50 based on activity in N548 mutant cells

Compound	maximal fold induction (N548 mutant cells; Rattus norvegicus, 72 h)	EC50 (N548 mutant cells; [3])	other results
CCCC1O[C@@H]2C[C@H]3[C@@H]4CCC5=CC(=O)C=C[C@]5(C)[C@H]4[C@@H](O)C[C@]3(C)[C@]2(C(=O)CO)O1 (stereo partly shown) [Budesonide, reference compound]			EC50 (N548 mutant cells; Rattus norvegicus, ST14A, 72 h): 500 nM; Activity (N548 mutant cells; nonselective hits): 2
CCOC(=O)C(C)(C)Oc1ccc(Cl)cc1 [Clofibrate, reference compound]			EC50 (N548 mutant cells; Rattus norvegicus, ST14A, 72 h): 1000 nM; Activity (N548 mutant cells; nonselective hits): 2
O=C(O)c1cc([N+](=O)[O-])ccc1NCCCc1ccccc1 [Compound 2-NPPB, reference compound]			EC50 (N548 mutant cells; [2]): 10000 nM; Activity (N548 mutant cells; nonselective hits): 1.5; CC50 (N548 mutant cells; read-out: TC50, nonselective hits, maximum concentration tested 80 μM): 40000 nM
CC[C@@]1(C)CC(CCN(Cc2ccco2)C(C)=O)(c2ccccc2)CCO1 (stereo partly shown) [Compound 164-1]			EC50 [1]: 2000 nM; TC50 [1]: 8000 nM
Cc1ccc(C2(CCNC(=O)c3ccc(Br)o3)CCOC(C(C)C)C2)cc1 (stereo not shown) [Compound 164-2]			EC50 [1]: 440 nM; Max % Toxicity [1]: 53.69%
CCC(=O)N(CCC(Cc1ccccc1)C1CCOC(C)(C)C1)Cc1ccco1 (stereo not shown) [Compound 164-3]			EC50 [1]: 200 nM; TC50 [1]: 8000 nM; Max % Toxicity [1]: 56.80%
CC(c1ccccc1)N(CCC(Cc1ccccc1)C1COCC(C)(C)C1)C(=O)c1ccco1 (stereo not shown) [Compound 164-4]			TC50 [1]: 400 nM; Max % Toxicity [1]: 64.22%
COc1ccc(CN(CCC(c2ccccc2)C2CCOC(C)(C)C2)C(=O)c2ccco2)cc1OC (stereo not shown) [Compound 164-5, N-(3,4-dimethoxybenzyl)-N-[3-(2,2-dimethyltetrahydro-2H-pyran-4-yl)-3-phenylpropyl]-2-furamide]			EC50 [1]: 200 nM; TC50 [1]: 6000 nM; Max % Toxicity [1]: 18.43%
COc1ccc(CN(CCC2(c3ccc(C)cc3)CCOC(C)(C)C2)C(=O)c2ccco2)cc1 (stereo not shown) [Compound 164-6]			EC50 [1]: 100 nM; TC50 [1]: 3000 nM; Max % Toxicity [1]: 60.14%
COc1cc([C@@H]2c3cc4c(cc3[C@H](O)[C@H]3COC(=O)[C@H]23)OCO4)cc(OC)c1OC [Podophyllotoxin, reference compound]	2.5	25 nM	
CCCCC[C@H](O)/C=C/[C@H]1[C@H](O)CC(=O)[C@@H]1C/C=C\CCCC(=O)O [Prostaglandin E2, reference compound]			EC50 (N548 mutant cells; [2]): 100 nM; Activity (N548 mutant cells; nonselective hits): 2
C[C@H](O)[C@H](O)[C@H]1CNc2nc(N)[nH]c(=O)c2N1 [Tetrahydrobiopterin, reference compound]			EC50 (N548 mutant cells; Rattus norvegicus, ST14A, 72 h): 500 nM; Activity (N548 mutant cells; nonselective hits): 2.5
CC1=C(/C=C/C(C)=C/C=C/C(C)=C/C(=O)O)C(C)(C)CCC1 [Tretinoin, reference compound]			EC50 (N548 mutant cells; Rattus norvegicus, ST14A, 72 h): 600 nM; Activity (N548 mutant cells; nonselective hits): 2.5
CC1OC(=O)C(C(C)C)NC(=O)C(C(C)C)OC(=O)C(C(C)C)NC(=O)C(C)OC(=O)C(C(C)C)NC(=O)C(C(C)C)OC(=O)C(C(C)C)NC(=O)C(C)OC(O)C(C(C)C)NC(=O)C(C(C)C)OC(=O)C(C(C)C)NC1=O (stereo not shown) [Valinomycin A, reference compound]	2.5	150 nM	
CC[C@]1(O)C[C@H]2CN(CCc3c([nH]c4ccccc34)[C@@](C(=O)OC)(c3cc4c(cc3OC)N(C=O)[C@H]3[C@@](O)(C(=O)OC)[C@H](OC(C)=O)[C@]5(CC)C=CCN6CC[C@]43[C@@H]65)C2)C1 [Vincristine, reference compound]			N548 Mut: Max, maximum rescue expressed as fold over DMSO treated N548 mutant cells (N548 mutant cells; 0.5% IFS, 39° C., 3 d): 2.5 fold; EC50 (N548 mutant cells; [4]): 40 nM
CCCOc1ccccc1-c1nc2nn[nH]c2c(=O)[nH]1 [Zaprinast, reference compound]			EC50 (N548 mutant cells; Rattus norvegicus, ST14A, 72 h): 5000 nM; Activity (N548 mutant cells; nonselective hits): 1.5
CCCc1cc(OC(=O)C(CC)c2ccccc2)n(-c2cccc(F)c2)n1 (stereo not shown) [revertin-1b]	25	4 µg/mL	selectivity profile of cell death rescue in panel of htt expressing cell lines (N548 mutant cells): selectively rescued cell death in all mutant htt-expressing cell lines
COc1ccccc1C(CCN(C(C)=O)C(C)c1ccccc1)C1CCC(C)(C)OC1 (stereo not shown) [revertin-3]	4	2 µg/mL	
COc1cc(CC(=O)NC(C)C2C(=O)CC3C2C3(C)C)cc(OC)c1OC (stereo not shown) [revertin-4]	1.5	4 µg/mL	
CC1(C)C(C=C(Cl)Cl)C1C(=O)C1=C(O)CCCC1=O (stereo not shown) [revertin-6]	8	3 µg/mL	selectivity profile of cell death rescue in panel of htt expressing cell lines (N548 mutant cells): N548 mutant selective
CCCCCCN(C(=O)CCCC)C(C)c1nc2ccccc2c(=O)n1-c1ccccc1OC (stereo not shown) [revertin-10]	1.5	4 µg/mL	selectivity profile of cell death rescue in panel of htt expressing cell lines (N548 mutant cells): N63 and N548 mutant selective

Compound	maximal fold induction (N548 mutant cells; Rattus norvegicus, 72 h)	EC50 (N548 mutant cells; [3])	other results
O=c1cccc2n1CC1CC2CN(C2=NC=NC3c4cc(Cl)ccc4NC23)C1 (stereo not shown) [revertin-12]	1.5	3 µg/mL	
O=[N+]([O-])c1cc(CN2CCN(CCO)CC2)ccc1Cl [revertin-13]	1.5	5 µg/mL	
CCOC(=O)c1cccc(NS(O)(O)c2ccc(OC)cc2)c1 [revertin-14]			selectivity profile of cell death rescue in panel of htt expressing cell lines (N548 mutant cells): N548 and FL-mutant selective
O=c1[nH]c2c(c(=O)[nH]1)C(c1cccc([N+](=O)[O-])c1)C=C(c1ccccc1)O2 (stereo not shown) [revertin-15]	3	1 µg/mL	
CCCN1C(=O)C(=O)c2cc(C)ccc21 [revertin-16]	2	1 µg/mL	
CC(C)CC(NC(=O)OCc1ccccc1)C(=O)Oc1ccc2c(=O)c(-c3ccc([N+](=O)O)cc3)coc2c1 (stereo not shown) [revertin-17]	1.5	4 µg/mL	
COc1ccc(C(CCN(CC2CCOC(C)(C)C2)C(C)=O)c2ccccc2)cc1 (stereo not shown) [revertin-18]	1.5	4 µg/mL	
COc1cc2c3c(c1)C(C)CC(C)(C)N3C(=O)C2=O (stereo not shown) [revertin-19]	2	4 µg/mL	
COc1ccc(CN(CCC2(c3ccccc3)CCOC(C)(C)C2)C(=O)c2ccco2)cc1OC (stereo not shown) [revertin-20]	2	8 µg/mL	
Cc1ccc(-c2nc(NS(=O)(=O)c3ccc(Cl)cc3)sc2C)cc1 [revertin-21]	3	4 µg/mL	
CC(=O)N(c1ccc(Br)cc1)C1C(=O)c2ccccc2C(=O)C1N(C)C (stereo not shown) [revertin-24]	25	2 µg/mL	
CCC1CN2CCc3cc(OC)c(OC)cc3C2CC1CC1c2cc(OC)c(OC)cc2CCN1C(=O)c1ccco1 (stereo not shown) [revertin-25]	4	3 µg/mL	
CC12CC3CC(C)(C1)CC(NC=O)(C3)C2 [revertin-26]	1.5	5 µg/mL	
Oc1ccc2c(c1)CC1NCCc3cc(O)c(O)c-2c31 (stereo not shown) [revertin-27]	3	4 µg/mL	
CC1=NN(C(N)=S)C(=O)C1NNc1ccccc1C(F)(F)F (stereo not shown) [revertin-29]	3	2 µg/mL	
CC(C)C1=CCC2C(=C1)CCC1C(C(=O)O)CCCC21C (stereo not shown) [revertin-30]	4	2 µg/mL	
O=C(NNC(C(=O)Cc1cccs1)C(F)(F)F)c1cccc(Br)c1 (stereo not shown) [revertin-31]	4	2 µg/mL	
Antimycin A [reference compound]			N548 Mut: Max, maximum rescue expressed as fold over DMSO treated N548 mutant cells (N548 mutant cells; 0.5% IFS, 39° C., 3 d): 3 fold; EC50 (N548 mutant cells; [4]): 5000 nM
Nonactin [reference compound]			N548 Mut: Max, maximum rescue expressed as fold over DMSO treated N548 mutant cells (N548 mutant cells; 0.5% IFS, 39° C., 3 d): 2.5 fold; EC50 (N548 mutant cells; [4]): 600 nM
Rotenone [reference compound]			N548 Mut: Max, maximum rescue expressed as fold over DMSO treated N548 mutant cells (N548 mutant cells; 0.5% IFS, 39° C., 3 d): 2.5 fold; EC50 (N548 mutant cells; [4]): 5000 nM
